Assay results reported in the NIST ThermoML archive (doi:10.1021/je300590v).

Conditions: Vibrating tube method

O=C=O [carbon dioxide]
Conditions | mass density [kg/m3]
273.15 K, 1001 kPa, Gas | 21.2
273.15 K, 2001 kPa, Gas | 45.7
273.15 K, 3001 kPa, Gas | 77.3
273.15 K, 3300 kPa, Gas | 89.9
273.15 K, 3500 kPa, Liquid | 928.1
273.15 K, 4001 kPa, Liquid | 932.4
273.15 K, 5001 kPa, Liquid | 940.7
273.15 K, 6000 kPa, Liquid | 948.2
273.15 K, 7000 kPa, Liquid | 955.3
273.15 K, 8003 kPa, Liquid | 961.9
273.15 K, 9001 kPa, Liquid | 968.1
273.15 K, 10002 kPa, Liquid | 974.1
273.15 K, 11003 kPa, Liquid | 979.7
273.15 K, 12000 kPa, Liquid | 985.1
273.15 K, 13004 kPa, Liquid | 990.1
273.15 K, 14002 kPa, Liquid | 995
273.15 K, 15001 kPa, Liquid | 999.7
273.15 K, 16002 kPa, Liquid | 1004.3
273.15 K, 17000 kPa, Liquid | 1008.6
273.15 K, 18001 kPa, Liquid | 1012.8
273.15 K, 19001 kPa, Liquid | 1017
273.15 K, 20000 kPa, Liquid | 1020.8
283.15 K, 1000 kPa, Gas | 20.4
283.15 K, 2001 kPa, Gas | 43.1
283.15 K, 3001 kPa, Gas | 70.9
283.15 K, 4000 kPa, Gas | 108.4
283.15 K, 4400 kPa, Gas | 130.1
283.15 K, 5001 kPa, Liquid | 869.1
283.15 K, 6003 kPa, Liquid | 882.2
283.15 K, 7000 kPa, Liquid | 893.3
283.15 K, 8001 kPa, Liquid | 903
283.15 K, 9001 kPa, Liquid | 912.2
283.15 K, 10001 kPa, Liquid | 920.4
283.15 K, 11001 kPa, Liquid | 928.2
283.15 K, 12000 kPa, Liquid | 935.5
283.15 K, 13001 kPa, Liquid | 942.2
283.15 K, 14001 kPa, Liquid | 948.3
283.15 K, 15000 kPa, Liquid | 954.3
283.15 K, 16001 kPa, Liquid | 960.1
283.15 K, 17001 kPa, Liquid | 965.5
283.15 K, 18002 kPa, Liquid | 970.8
283.15 K, 19001 kPa, Liquid | 975.7
283.15 K, 20000 kPa, Liquid | 980.4
293.15 K, 1011 kPa, Gas | 19.8
293.15 K, 2001 kPa, Gas | 41
293.15 K, 3001 kPa, Gas | 66.2
293.15 K, 4000 kPa, Gas | 97.3
293.15 K, 5000 kPa, Gas | 140.4
293.15 K, 5600 kPa, Gas | 182.2
293.15 K, 5800 kPa, Liquid | 774.1
293.15 K, 6001 kPa, Liquid | 783.3
293.15 K, 7003 kPa, Liquid | 809.1
293.15 K, 8001 kPa, Liquid | 827.5
293.15 K, 9002 kPa, Liquid | 843.2
293.15 K, 10001 kPa, Liquid | 856.1
293.15 K, 11001 kPa, Liquid | 867.7
293.15 K, 12000 kPa, Liquid | 877.9
293.15 K, 13000 kPa, Liquid | 887.3
293.15 K, 14000 kPa, Liquid | 895.9
293.15 K, 15003 kPa, Liquid | 904
293.15 K, 16003 kPa, Liquid | 911.5
293.15 K, 17001 kPa, Liquid | 918.6
293.15 K, 18002 kPa, Liquid | 925
293.15 K, 19002 kPa, Liquid | 931.2
293.15 K, 20000 kPa, Liquid | 937.1
